In paper PMC12263422, “Cryo-EM structure of the human THIK-1 K2P K^+ channel reveals a lower Y gate regulated by lipids and anesthetics” (Nature Structural & Molecular Biology, 2025):
Where a chain is given by its changes, count along the chain named. Where “and” joins values, the source holds several entries; their conditions need not be identical. Equal entries are not always repeated.

Legend:
Assay type in all cases: cell-based
THIK-1 R92A = target: T1, THIK-1 R92A (Homo sapiens, UniProt Q9HB14, R92A); test: Inside-out excised patch recordings, oocytes, THIK-1 R92A mutant (lipid activation); details: THIK-1 R92A
T1 construct: expressed in transfected cells; host or cells: Xenopus oocytes (mRNA injection)
T1 sequence (Q9HB14 1-408 R92A): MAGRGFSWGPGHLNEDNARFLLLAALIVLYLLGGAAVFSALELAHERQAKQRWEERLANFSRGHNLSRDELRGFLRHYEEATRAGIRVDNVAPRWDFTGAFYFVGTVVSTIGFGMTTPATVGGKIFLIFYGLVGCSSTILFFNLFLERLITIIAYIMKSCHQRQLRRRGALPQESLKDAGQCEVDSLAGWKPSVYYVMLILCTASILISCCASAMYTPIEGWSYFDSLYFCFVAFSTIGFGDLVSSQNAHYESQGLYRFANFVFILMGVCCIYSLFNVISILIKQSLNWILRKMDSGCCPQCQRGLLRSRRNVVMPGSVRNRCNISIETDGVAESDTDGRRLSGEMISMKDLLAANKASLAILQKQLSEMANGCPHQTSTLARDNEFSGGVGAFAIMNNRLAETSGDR
Description: (§1) Human K2P13.1 THIK-1 (GenBank accession number: NM_022054) and human K2P12.1 THIK-2 (NM_022055.1) were used in this study. For functional expression studies, the respective K^+ channel subtype coding sequences were subcloned into the oocyte expression vector pSGEM or the dual-purpose expression vector pFAW[41] and verified by sequencing. All mutant channels were obtained by site-directed mutagenesis and verified by sequencing. To increase surface expression and macroscopic currents, measurements of THIK-2 channels used a mutated ER retention motif, (R11A R12A R14A R15A R16A; THIK-2*)[20]. Vector DNA was linearized with NheI or MluI, and mRNA was synthesized in vitro using the SP6 or T7 AmpliCap Max High Yield Message Maker Kit (Cellscript, USA) or HiScribe T7 ARCA mRNA Kit (New England Biolabs).
(§2) Two-electrode voltage–clamp (TEVC) studies were performed in Xenopus oocytes. All animal use conformed to the Guide for the Care and Use of Laboratory Animals (NIH Publication 85–23), and all experiments using Xenopus toads were approved by the local ethics panels. Oocytes were stored at 17 °C in ND96 recording solution composed of (in mM): 96 NaCl, 2 KCl, 1.8 CaCl2, 1 MgCl2, 5 HEPES (pH 7.5 adjusted with NaOH and HCl), supplemented with Na-pyruvate (275 mg L^–1), theophylline (90 mg L^–1) and gentamicin (50 mg L^–1). Oocytes were injected with 1 ng mRNA for WT or mutant channels, and were incubated for 24–48 h at 17 °C. Two-electrode voltage clamp recordings were then performed as previously described[42],[43]. For macroscopic patch–clamp measurements, oocytes were obtained as described above incubated at 17 °C in a solution containing (mM): 54 NaCl, 30 KCl, 2.4 NaHCO3, 0.82 MgSO4 ×7 H2O, 0.41 CaCl2, 0.33 Ca(NO3)2 ×4 H2O and 7.5 TRIS (pH 7.4 adjusted with NaOH and HCl) for 1–4 days before use. Excised patch recordings in inside-out configuration conditions were performed at room temperature. Patch pipettes were made from thick-walled borosilicate glass GB 200TF-8P (Science Products), had resistances of 0.2–0.5 MΩ (tip diameter, 10–25 µm) and filled with a pipette solution (in mM): 120 KCl, 10 HEPES and 3.6 CaCl2 (pH 7.4 adjusted with KOH and HCl). Intracellular bath solutions and compounds were applied to the cytoplasmic side of excised patches for the various K^+ channels through a gravity flow multi-barrel pipette system. The intracellular solution had the following composition (in mM): 120 KCl, 10 HEPES, 2 EGTA and 1 pyrophosphate (pH adjusted with KOH and HCl). Currents were recorded with an EPC10 amplifier (HEKA Electronics) and sampled at 10 kHz or higher, with filtering set to 3 kHz (–3 dB) or higher, as appropriate for sampling rate. For measurements of GPCR activation, whole-cell currents were recorded for THIK-1 in transiently transfected HEK-293 cells. Cells were stimulated by a ramp protocol between −100 and +60 mV (holding potential, −80 mV). The pipette solution was composed of (in mM): 140 KCl, 2 MgCl2, 1 CaCl2, 2.5 EGTA and 10 HEPES (pH 7.3 adjusted with KOH and HCl). The extracellular bath solution had the following composition (in mM): 135 NaCl, 5 KCl, 2 MgCl2, 2 CaCl2, 10 glucose and 10 HEPES pH (pH 7.3 adjusted with NaOH and HCl). Oxotremorine M (Oxo-M) was added to extracellular bath solution to obtain the final concentration. Single-channel currents were recorded with an Axopatch 200B amplifier through a Digidata 1440A digitizer (Molecular Devices). Data were filtered at 2 kHz and recorded at a 200-kHz sampling rate with the program Clampex (Molecular Devices). Pipette solution and bath solution for cell-attached recordings contained (in mM): 140 KCl, 2 MgCl2, 1 CaCl2 and 10 HEPES (pH 7.4 adjusted with KOH and HCl). For inside-out recordings, the bath solution contained (in mM): 140 KCl, 2 MgCl2, 1 CaCl2 and 10 HEPES (pH 7.2 adjusted with KOH and HCl). All experiments were conducted at room temperature. […]

[1] = target: T2, Human K2P13.1 THIK-1 (WT) (Homo sapiens, UniProt Q9HB14); test: Macroscopic inside-out excised patch recordings from Xenopus oocytes expressing WT THIK-1; compounds applied to the intracellular side; details: for extent of activation by oleoyl-CoA: 5 µM oleoyl-CoA; for Fold activation: 5.0 µM oleoyl-CoA
T2 construct: expressed in transfected cells; host or cells: Xenopus oocytes (mRNA injection)
T2 sequence (Q9HB14 1-408): T1 sequence (Q9HB14 1-408 R92A) with A92R
Description: as §1, §2

THIK-1 F262A = target: T3, THIK-1 F262A (Homo sapiens, UniProt Q9HB14, F262A); test: Inside-out excised patch recordings, oocytes, THIK-1 F262A mutant (lipid activation); details: THIK-1 F262A
T3 construct: expressed in transfected cells; host or cells: Xenopus oocytes (mRNA injection)
T3 sequence (Q9HB14 1-408 F262A): T1 sequence (Q9HB14 1-408 R92A) with A92R, F262A
Description: as §1, §2

SMILES: CCCCCCCC/C=C\CCCCCCCC(=O)SCCNC(=O)CCNC(=O)[C@H](O)C(C)(C)COP(=O)(O)OP(=O)(O)OC[C@H]1O[C@@H](n2cnc3c(N)ncnc32)[C@H](O)[C@@H]1OP(=O)(O)O [oleoyl-CoA]
- Fold activation with 5.0 µM oleoyl-CoA (THIK-1 R92A; individual recordings): 19.660 and 15.940 and 13.100 and 29.730 and 21.570 and 18.010
- Fold activation with 5.0 µM oleoyl-CoA (THIK-1 R92A; mean): 19.67
- extent of activation by oleoyl-CoA ([1]; WT): 14 ± 1 fold
- extent of activation by oleoyl-CoA ([1]; WT preinhibited with halothane (15.2 mM)): 8 ± 2 fold
- Fold activation ([1]; WT, Halothane pre-inhibited (15.2 mM halothane), individual recordings): 8.238 and 0.783 and 13.259 and 5.975 and 16.259 and 6.147 and 12.474 and 4.311
- Fold activation ([1]; WT, Halothane pre-inhibited (15.2 mM halothane), mean): 8.43
- Fold activation ([1]; WT, absence of halothane, mean): 13.60
- Fold activation with 5.0 µM oleoyl-CoA ([1]; THIK-1 WT, mean): 13.60
- Fold activation with 5.0 µM oleoyl-CoA (THIK-1 F262A; individual recordings): 16.700 and 14.500 and 16.910 and 15.530 and 18.460 and 22.210
- Fold activation with 5.0 µM oleoyl-CoA (THIK-1 F262A; mean): 17.39
